Test results: ChEMBL document CHEMBL1629549, “Effects of minocycline and valproic acid coadministration on atazanavir plasma concentrations in human immunodeficiency virus-infected adults receiving atazanavir-ritonavir” (Antimicrob Agents Chemother, 2008)

How the values were obtained:
Type in all cases: ADME, organism-based
[1] = AUC (0 to 24 hrs) in HIV-infected patient at 100 mg, qd; set-up: dose 100 mg, time < 24 hr; conditions: human, plasma
[2] = Cmax in HIV-infected patient at 100 mg, qd co-administered with 100 mg minocycline and 250 mg valporic acid, bid for 15 days; set-up: dose 100 mg; conditions: human, in vivo
[3] = Half life in HIV-infected patient at 100 mg, qd co-administered with 100 mg minocycline, bid for 15 days; conditions: human, in vivo
[4] = Cmax in HIV-infected patient at 100 mg, qd; set-up: dose 100 mg; conditions: human, in vivo
[5] = AUC (0 to 24 hrs) in HIV-infected patient at 100 mg, qd co-administered with 100 mg minocycline and 250 mg valporic acid, bid for 15 days; set-up: dose 100 mg, time < 24 hr; conditions: human, plasma
[6] = Half life in HIV-infected patient at 100 mg, qd co-administered with 100 mg minocycline and 250 mg valporic acid, bid for 15 days; conditions: human, in vivo
[7] = Half life in HIV-infected patient at 100 mg, qd; conditions: human, in vivo
[8] = Cmax in HIV-infected patient at 100 mg, qd co-administered with 100 mg minocycline, bid for 15 days; set-up: dose 100 mg; conditions: human, in vivo
[9] = AUC (0 to 24 hrs) in HIV-infected patient at 100 mg, qd co-administered with 100 mg minocycline, bid for 15 days; set-up: time < 24 hr, dose 100 mg; conditions: human, plasma
[10] = AUC (0 to 24 hrs) in HIV-infected patient at 300 mg, qd co-administered with 100 mg minocycline and 250 mg valporic acid, bid for 15 days; set-up: time < 24 hr, dose 300 mg; conditions: human, plasma
[11] = AUC (0 to 24 hrs) in HIV-infected patient at 300 mg, qd; set-up: time < 24 hr, dose 300 mg; conditions: human, plasma
[12] = AUC (0 to 24 hrs) in HIV-infected patient at 300 mg, qd co-administered with 100 mg minocycline, bid for 15 days; set-up: dose 300 mg, time < 24 hr; conditions: human, plasma
[13] = Cmax in HIV-infected patient at 300 mg, qd; set-up: dose 300 mg; conditions: human, in vivo
[14] = Half life in HIV-infected patient at 300 mg, qd co-administered with 100 mg minocycline, bid for 15 days; conditions: human, in vivo
[15] = Cmax in HIV-infected patient at 300 mg, qd co-administered with 100 mg minocycline and 250 mg valporic acid, bid for 15 days; set-up: dose 300 mg; conditions: human, in vivo
[16] = Cmax in HIV-infected patient at 300 mg, qd co-administered with 100 mg minocycline, bid for 15 days; set-up: dose 300 mg; conditions: human, in vivo
[17] = Half life in HIV-infected patient at 300 mg, qd co-administered with 100 mg minocycline and 250 mg valporic acid, bid for 15 days; conditions: human, in vivo
[18] = Half life in HIV-infected patient at 300 mg, qd; conditions: human, in vivo

Row | SMILES | AUC at 24 h [1] [ng·h/mL] | Cmax [2] [ng/mL] | half-life [3] [h] | Cmax [4] [ng/mL] | AUC at 24 h [5] [ng·h/mL] | half-life [6] [h] | half-life [7] [h] | Cmax [8] [ng/mL] | AUC at 24 h [9] [ng·h/mL] | AUC at 24 h [10] [ng·h/mL] | AUC at 24 h [11] [ng·h/mL] | AUC at 24 h [12] [ng·h/mL] | Cmax [13] [ng/mL] | half-life [14] [h] | Cmax [15] [ng/mL] | Cmax [16] [ng/mL] | half-life [17] [h] | half-life [18] [h]
1 | CC(C)c1nc(CN(C)C(=O)N[C@H](C(=O)N[C@@H](Cc2ccccc2)C[C@H](O)[C@H](Cc2ccccc2)NC(=O)OCc2cncs2)C(C)C)cs1 [RITONAVIR] | 9600 | 884 | 6.64 | 957 | 7270 | 4.4 | 5.4 | 990 | 8190 | – | – | – | – | – | – | – | – | –
2 | COC(=O)N[C@H](C(=O)N[C@@H](Cc1ccccc1)[C@@H](O)CN(Cc1ccc(-c2ccccn2)cc1)NC(=O)[C@@H](NC(=O)OC)C(C)(C)C)C(C)(C)C [ATAZANAVIR] | – | – | – | – | – | – | – | – | – | 33500 | 53500 | 33100 | 5130 | 7.93 | 2600 | 3400 | 10.4 | 11
